Results taken from ChEMBL document CHEMBL2396574, “Design, synthesis and evaluation of retinoids with novel bulky hydrophobic partial structures” (Bioorg Med Chem, 2013).
The source made the active and inactive calls. No cut-off for these calls is given here.

Assays:
[1] = molecular target: T1, Retinoic acid receptor RXR-gamma (Homo sapiens) (UniProt P48443); assay: Transactivation of full-length RXRgamma (unknown origin) expressed in African green monkey COS1 cells at 1000 nM by luciferase reporter gene assay; assay type: cell-based; details: COS-1
T1 sequence (whole entry): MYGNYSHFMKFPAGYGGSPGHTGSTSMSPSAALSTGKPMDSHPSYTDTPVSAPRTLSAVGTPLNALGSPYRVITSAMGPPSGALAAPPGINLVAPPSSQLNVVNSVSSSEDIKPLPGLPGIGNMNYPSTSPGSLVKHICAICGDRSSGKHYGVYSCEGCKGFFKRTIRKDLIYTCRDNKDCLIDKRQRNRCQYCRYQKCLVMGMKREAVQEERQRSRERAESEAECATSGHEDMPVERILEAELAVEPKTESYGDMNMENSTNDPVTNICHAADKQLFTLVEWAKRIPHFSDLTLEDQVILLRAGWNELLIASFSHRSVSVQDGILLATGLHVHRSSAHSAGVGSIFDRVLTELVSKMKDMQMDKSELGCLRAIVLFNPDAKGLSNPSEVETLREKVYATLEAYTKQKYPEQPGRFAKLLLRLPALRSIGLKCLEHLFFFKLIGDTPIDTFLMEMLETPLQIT

[2] = molecular target: T2, Retinoic acid receptor gamma (Homo sapiens) (UniProt P13631); assay: Transactivation of Gal4-fused RARgamma (unknown origin) expressed in African green monkey COS1 cells at 100 nM by luciferase reporter gene assay relative to DMSO-treated control; assay type: cell-based; details: COS-1
T2 sequence (whole entry): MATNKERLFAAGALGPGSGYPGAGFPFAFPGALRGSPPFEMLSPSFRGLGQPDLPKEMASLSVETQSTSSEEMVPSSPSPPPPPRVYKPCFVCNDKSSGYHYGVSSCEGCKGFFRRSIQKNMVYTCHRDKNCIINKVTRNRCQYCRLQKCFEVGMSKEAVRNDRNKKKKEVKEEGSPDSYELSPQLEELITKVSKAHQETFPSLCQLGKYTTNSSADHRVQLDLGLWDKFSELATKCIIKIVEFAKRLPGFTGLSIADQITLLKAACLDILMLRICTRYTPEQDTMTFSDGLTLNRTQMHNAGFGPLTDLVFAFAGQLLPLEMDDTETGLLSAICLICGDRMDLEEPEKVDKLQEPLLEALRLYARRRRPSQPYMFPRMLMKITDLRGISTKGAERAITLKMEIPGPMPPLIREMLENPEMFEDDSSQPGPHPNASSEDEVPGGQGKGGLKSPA

[3] = molecular target: T3, Retinoic acid receptor beta (Homo sapiens) (UniProt P10826); assay: Transactivation of Gal4-fused RARbeta (unknown origin) expressed in African green monkey COS1 cells at 100 nM by luciferase reporter gene assay relative to DMSO-treated control; assay type: cell-based; details: COS-1
T3 sequence (whole entry): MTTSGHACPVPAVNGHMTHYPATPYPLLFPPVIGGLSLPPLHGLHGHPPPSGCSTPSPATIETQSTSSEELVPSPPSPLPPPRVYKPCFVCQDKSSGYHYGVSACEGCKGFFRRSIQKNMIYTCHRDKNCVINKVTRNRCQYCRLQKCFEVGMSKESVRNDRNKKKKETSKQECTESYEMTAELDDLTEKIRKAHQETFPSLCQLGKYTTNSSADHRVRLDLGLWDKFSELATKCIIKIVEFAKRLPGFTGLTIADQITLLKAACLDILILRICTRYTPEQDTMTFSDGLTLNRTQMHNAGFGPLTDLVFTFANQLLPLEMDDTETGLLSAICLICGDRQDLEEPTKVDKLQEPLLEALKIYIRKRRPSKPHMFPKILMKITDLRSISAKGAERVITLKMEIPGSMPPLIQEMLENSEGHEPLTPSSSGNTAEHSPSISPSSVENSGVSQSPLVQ

[4] = molecular target: T4, Retinoic acid receptor RXR-beta (Homo sapiens) (UniProt P28702); assay: Transactivation of full-length RXRbeta (unknown origin) expressed in African green monkey COS1 cells at 1000 nM by luciferase reporter gene assay; assay type: cell-based; details: COS-1
T4 sequence (whole entry): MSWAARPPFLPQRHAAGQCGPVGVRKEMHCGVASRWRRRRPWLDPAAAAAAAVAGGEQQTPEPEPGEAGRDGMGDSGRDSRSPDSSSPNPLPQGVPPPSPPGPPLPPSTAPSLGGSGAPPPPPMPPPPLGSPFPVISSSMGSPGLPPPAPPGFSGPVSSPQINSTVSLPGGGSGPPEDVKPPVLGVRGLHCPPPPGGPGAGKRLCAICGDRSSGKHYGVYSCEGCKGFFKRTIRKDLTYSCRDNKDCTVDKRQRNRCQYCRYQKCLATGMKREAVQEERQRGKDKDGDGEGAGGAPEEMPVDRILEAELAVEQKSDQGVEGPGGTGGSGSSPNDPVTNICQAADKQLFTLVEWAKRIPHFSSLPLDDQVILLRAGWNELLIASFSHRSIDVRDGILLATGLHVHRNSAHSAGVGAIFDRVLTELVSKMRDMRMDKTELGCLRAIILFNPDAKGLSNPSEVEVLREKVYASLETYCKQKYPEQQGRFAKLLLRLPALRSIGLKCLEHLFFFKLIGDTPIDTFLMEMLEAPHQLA

HL-60 [5] = assay: Induction of human HL60 cell differentiation into myeloid cells at 10 nM after 4 days by NBT reduction assay relative to control; assay type: functional
HL-60 [6] = assay: Induction of human HL60 cell differentiation into myeloid cells at 100 nM after 4 days by NBT reduction assay relative to control; assay type: functional

Row | SMILES | Activity [1] | fold change (FC) [2] | fold change (FC) [3] | Activity [4] | Activity (HL-60 [5]) | Activity (HL-60 [6])
1 | O=C(O)c1ccc(C(=O)Nc2cc3c4c(c2)CCCCC4CCCC3)nc1 | inactive | 2 | 17 | inactive |  | 
2 | CC12CCCc3cc(C(=O)Nc4ccc(C(=O)O)nc4)cc(c31)CCC2 | inactive | 1 |  | inactive |  | 
3 | O=C(O)c1ccc(NC(=O)c2cc3cc(c2)CCCCCCCCCC3)cc1 | inactive | 1 | 13 | inactive | 30% | 38%
4 | CC12CCCc3cc(C(=O)Nc4ccc(C(=O)O)c(F)c4)cc(c31)CCC2 | inactive | 2 | 13 | inactive | 18% | 29%
5 | O=C(O)c1ccc(NC(=O)c2cc3c4c(c2)CCCC4CCC3)cc1 | inactive | 3 | 18 | inactive | 27% | 38%
6 | COc1cc(NC(=O)c2cc3c4c(c2)CCCC4(C)CCC3)ccc1C(=O)O | inactive | 1 | 3 | inactive | 5% | 17%
7 | CC12CCCc3cc(NC(=O)c4ccc(C(=O)O)cc4)cc(c31)CCC2 | inactive | 1 | 12 | inactive | 12% | 
8 | O=C(O)c1ccc(C(=O)Nc2cc3c4c(c2)CCCC4CCC3)s1 | inactive | 1 |  | inactive |  | 
9 | O=C(Nc1ccc(C(=O)O)s1)c1cc2c3c(c1)CCCC3CCC2 | inactive | 1 |  | inactive |  | 
10 | O=C(Nc1ccc(C(=O)O)c(F)c1)c1cc2c3c(c1)CCCC3CCC2 | inactive | 2 | 7 | inactive | 49% | 60%
11 | O=C(Nc1ccc(C(=O)O)c(Cl)c1)c1cc2c3c(c1)CCCC3CCC2 | inactive | 1 | 6 | inactive | 16% | 37%
12 | CC12CCCc3cc(C(=O)Nc4ccc(C(=O)O)cc4)cc(c31)CCC2 | inactive | 4 | 20 | inactive | 36% | 
13 | O=C(Nc1cc2c3c(c1)CCCC3CCC2)c1ccc(C(=O)O)nc1 | inactive | 1 |  | inactive |  | 
14 | CC12CCCc3cc(C(=O)Nc4ccc(C(=O)O)s4)cc(c31)CCC2 | inactive | 1 | 1 | inactive |  | 
15 | O=C(Nc1ccc(C(=O)O)c(O)c1)c1cc2c3c(c1)CCCC3CCC2 | inactive | 2 | 6 | inactive | 24% | 42%
16 | CC12CCCc3cc(C(=O)Nc4ccc(C(=O)O)cn4)cc(c31)CCC2 | inactive | 25 | 40 | inactive | 41% | 61%
17 | O=C(O)c1ccc(C(=O)Nc2cc3c4c(c2)CCCC4CCC3)nc1 | inactive | 7 | 16 | inactive | 2% | 5%
18 | O=C(Nc1ccc(C(=O)O)nc1)c1cc2c3c(c1)CCCC3CCC2 | inactive | 1 |  | inactive |  | 
19 | O=C(O)c1ccc(C(=O)Nc2cc3c4c(c2)CCCCC4CCCC3)cc1 | inactive | 1 | 13 | inactive | 13% | 53%
20 | CC12CCCc3cc(C(=O)Nc4ccc(C(=O)O)c(Cl)c4)cc(c31)CCC2 | inactive | 1 | 8 | inactive | 19% | 21%
21 | COc1cc(NC(=O)c2cc3c4c(c2)CCCCC4CCCC3)ccc1C(=O)O | inactive | 2 | 1 | inactive |  | 
22 | CC12CCCc3cc(C(=O)Nc4ccc(C(=O)O)c(O)c4)cc(c31)CCC2 | inactive | 1 | 7 | inactive | 17% | 32%
23 | O=C(Nc1ccc(C(=O)O)c(Cl)c1)c1cc2c3c(c1)CCCCC3CCCC2 | inactive | 2 | 13 | inactive | 18% | 35%
24 | CC1(C)CCC(C)(C)c2cc(NC(=O)c3ccc(C(=O)O)cc3)ccc21 [TAMIBAROTENE] | inactive |  |  | inactive | 60% | 68%
25 | CC12CCCc3cc(NC(=O)c4ccc(C(=O)O)nc4)cc(c31)CCC2 | inactive | 1 |  | inactive |  | 
26 | O=C(O)c1ccc(NC(=O)c2cc3c4c(c2)CCCCC4CCCC3)cc1 | inactive | 10 | 27 | inactive | 34% | 40%
27 | O=C(O)c1ccc(C(=O)Nc2cc3cc(c2)CCCCCCCCCC3)cc1 | inactive | 1 | 8 | inactive | 16% | 37%
28 | CC12CCCc3cc(NC(=O)c4ccc(C(=O)O)s4)cc(c31)CCC2 | inactive | 1 |  | inactive |  | 
29 | CC1=C(/C=C/C(C)=C/C=C/C(C)=C/C(=O)O)C(C)(C)CCC1 [TRETINOIN] | inactive |  |  | inactive | 46% | 71%
30 | O=C(O)c1ccc(NC(=O)c2cc3c4c(c2)CCCCC4CCCC3)nc1 | inactive | 56 | 45 | inactive |  | 
